From patent publication US8828954B2, “Use for scopolin and derivatives thereof” (Yonsei University Technology Holdings, Inc., priority 2010, dated 2014)
Marks after values point to notes of the source that are not given here.

Experiments:
3T3-L1 cells = assay: Inhibition of adipocyte differentiation in 3T3-L1 cells (Oil Red O staining); type: cell-based, mouse; conditions: scopolin 0.1, 1, 10, 50 and 100 μM, 14 days, FIG. 1
Description: Mouse adipocyte cell line (3T3-L1) was used to investigate the effect of scopolin on differentiation and growth of adipocytes. The preadipocytes, 3T3-L1 cells, were seeded on a 12-well plate and cultured to confluency using Dulbecco's modified Eagle's medium (DMEM) containing 1% penicillin-streptomycin, 1% non-essential amino acid and 10% fatal bovine serum (FBS), in a 5% CO2 incubator at 37° C. The 3T3-L1 cells grown to confluency were cultured for 2 days in MDI medium containing 0.5 mM isobutylmethylxanthine, 1 μM dexamethasone and 1 μg/mL insulin to differentiate them into differention adipocytes. Then, the cells were further cultivated in DMEM containing 1 μg/mL insulin to differentiate them into mature adipocytes. The cells were further cultured for 10 more days while replacing DMEM every other day to obtain fully differentiated adipocytes.
From the first day when MDI was added to the 3T3-L1 cells, scopolin was treated at concentrations of 0.1, 1, 10, 50 and 100 μM with 2-day intervals. Scopolin was used after being dissolved in DMSO. Only DMSO was added to the negative control group. […] In order to measure the level of triglyceride contained in the differentiated 3T3-L1 cells, the stained lipid droplets were dissolved in 1 mL of isobutanol and optical density (OD) value was measured at 600 nm.

[1] = Body weight and visceral fat weight in high-fat diet fed mice, 10 weeks; type: in vivo, mouse; conditions: 0.02% scopolin in high-fat diet
Description: (§1) The obesity-inducing control diet used in the present test was high-fat diet (HFD: 40% fat calorie, 17 g lard+3% corn oil/100 g diet). Diets supplemented with scopolin had the same composition as HF, except that each derivative was included at 0.02%. The diabetic drug metformin was added at 0.1% or the hyperlipidemic drug atorvastatin was added at 0.01% to HFD as controls. The normal diet (ND) was prepared according to the AIN-76 rodent diet composition (American Institute of Nutrition, Report of the American Institute of Nutrition ad hoc committee on standards for nutritional studies. J. Nutr., 107: 1340-1348, (1977)) (Table 1).
(§2) 5-week-old male […] mice (Orient, Korea) were accustomed to the laboratory environment for 1 week while feeding solid feed. Then, they were randomly divided into high-fat diet and test groups and bred for a total of 10 weeks. The diet was given between 10 and 11 a.m. every day together with water. Food intake was measured every day and body weight was measured once a week. In order to avoid transient body weight increase after feed intake, body weight was measured 2 hours after removing the feed.
(§3) After fasting the test animal for at least 12 hours and anesthetizing with diethyl ether, blood, liver and visceral fat (epididymal fat, perirenal fat, mesenteric fat and retroperitoneal fat) were taken and weighed after washing with 0.1 M PBS (pH 7.4). Blood taken from the abdominal aorta was centrifuged at 1000×g for 15 minutes for the separation of plasma.

[2] = Plasma lipid and glucose levels in high-fat diet fed mice; type: in vivo, mouse; conditions: SPID group, 10 weeks
Description: as §1, §2, §3
(§4) After 10 weeks of breeding, total cholesterol, HDL-cholesterol, triglyceride and glucose levels in the plasma and lipid levels in the liver tissue were measured as follows: Total cholesterol, HDL-cholesterol, triglyceride, free fatty acid and glucose levels in the plasma were measured twice for each using a commercially available kit (Bio Clinical System). The level of LDL+VLDL in plasma was calculated by subtracting HDL level from the total cholesterol level. The activities of ALT (alanine aminotransferase) and AST (aspartate aminotransferase) used as liver function indicator were measured using a commercially available kit (Bio Clinical System, Korea).

[3] = Liver weight and liver tissue lipid levels in high-fat diet fed mice; type: in vivo, mouse; conditions: SPID group, 10 weeks
Description: as §1, §2, §3
In addition, lipids were extracted from the liver tissue according to Folch et al.'s method (Folch J, Lees M, Sloane Stanley G H. A simple method for the isolation and purification of total lipides from animal tissues. J Biol. Chem. 1957; 226:497-509). After adding 1 mL of distilled water to 0.25 g of the liver tissue, the liver tissue was homogenized using a Polytron homogenizer (IKA-Werke GmbH & Co., Ultra-Turrax, Staufen, Germany). After adding 5 mL of chloroform:methanol solution (2:1, v/v) to the homogenate and mixing well, the mixture was centrifuged at 1000×g for 10 minutes. After adding 2 mL of chloroform:methanol solution (2:1, v/v) again to the supernatant, the same procedure was repeated to completely separate the lipid components of the liver. After adding 3 mL of chloroform:methanol:0.05% CaCl2 (3:48:47, v/v/v) solution to the remaining pellets and mixing well for 1 minute, followed by centrifugation at 1000×g for 10 minutes, the resulting pellets were completely dried with nitrogen gas. The dried lipids were dissolved in 1 mL of methanol and then analyzed. The commercially available kits (Bio Clinical System, Korea) were used to measure the levels of triglyceride, cholesterol and free fatty acids of the liver tissue.

[4] = ALT and AST activities (liver function indicators) in high-fat diet fed mice; type: in vivo, mouse; conditions: SPID group, 10 weeks
Description: as §1, §2, §3, §4

C/EBPα = assay: RT-PCR of C/EBPα mRNA in epididymal fat tissue; type: in vivo, mouse; conditions: SPID vs HFD, relative to GAPDH, FIG. 4
Description: (§5) Accordingly, to identify that scopolin inhibits directly obesity-related gene expressions, the inventors examined whether obesity-related gene is expressed according to scopolin treatment through RNA was isolated from epididymal fat tissues obtained in the example 3 and performed RT-PCR.
(§6) First, after adding 1 mL of Trizol agent per 0.1 g of epididymal fat tissues, the mixture was homogenized and centrifuged at 12,000×g for 10 min at 4° C. The supernatant was transferred to a new tube and 200 μl of chloroform was added to the tube, followed by vortexing. The same procedure was repeated twice and then the supernatant was transferred to a new tube, followed by addition of isopropanol and the supernatant at 1:1 ratio. The mixture was vigorously shaken 10 times and then incubated for 10 min at room temperature, followed by centrifugation at 12,000×g for 10 min at 4° C. to remove the supernatant. After adding 1 mL of 70% ethanol to the remaining pellet, it was centrifuged at 7,500×g for 5 min at 4° C. After removing the ethanol, the RNA pellet contained in the tube was dried for 5 min at 4° C. and dissolved in nuclease-free water. The RNA concentration of sample was measured at a wavelength of 260 nm and 280 nm using a UV/VIS spectrophotometer (Beckman coulter, DU730) and the integrity of RNA sample was verified by agarose gel electrophoresis. […]

PPARγ2 = assay: RT-PCR of PPARγ2 mRNA in epididymal fat tissue; type: in vivo, mouse; conditions: SPID vs HFD, relative to GAPDH, FIG. 4
Description: as §5, §6

aP2 = assay: RT-PCR of aP2 mRNA in epididymal fat tissue; type: in vivo, mouse; conditions: SPID vs HFD, relative to GAPDH, FIG. 4
Description: as §5, §6

UCP1 = assay: RT-PCR of UCP1 mRNA in epididymal fat tissue; type: in vivo, mouse; conditions: HFD-induced decrease, relative to GAPDH, FIG. 5
Description: as §5, §6

UCP3 = assay: RT-PCR of UCP3 mRNA in epididymal fat tissue; type: in vivo, mouse; conditions: HFD-induced decrease, relative to GAPDH, FIG. 5
Description: as §5, §6

[5] = system: mouse intraperitoneal macrophages; conditions: macrophages stimulated with ionophore; J Nat Prod 1996; cited from earlier work
acetylcholine esterase = acetylcholine esterase (Homo sapiens, UniProt P22303); conditions: J Med Chem 2004; cited from earlier work
Sequence of acetylcholine esterase (P22303 32-614): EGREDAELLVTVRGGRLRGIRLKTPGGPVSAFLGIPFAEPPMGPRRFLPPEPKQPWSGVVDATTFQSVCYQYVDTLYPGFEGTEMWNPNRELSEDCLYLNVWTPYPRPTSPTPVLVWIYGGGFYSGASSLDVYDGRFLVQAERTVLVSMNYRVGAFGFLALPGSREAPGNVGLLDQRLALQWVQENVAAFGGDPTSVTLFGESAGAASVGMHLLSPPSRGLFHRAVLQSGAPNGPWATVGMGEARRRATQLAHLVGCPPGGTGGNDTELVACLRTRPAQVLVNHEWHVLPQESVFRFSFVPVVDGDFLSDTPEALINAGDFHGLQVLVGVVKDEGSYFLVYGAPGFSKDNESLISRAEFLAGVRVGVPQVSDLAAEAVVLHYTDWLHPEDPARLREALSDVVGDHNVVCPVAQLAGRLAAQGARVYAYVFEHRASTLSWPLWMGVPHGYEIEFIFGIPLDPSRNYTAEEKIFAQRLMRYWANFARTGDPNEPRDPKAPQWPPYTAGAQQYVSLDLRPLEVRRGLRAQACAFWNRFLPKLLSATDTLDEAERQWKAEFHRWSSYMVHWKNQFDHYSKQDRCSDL

COc1cc2ccc(=O)oc2cc1OC1OC(CO)C(O)C(O)C1O [scopolin, 7-(beta-D-glucopyranosoyloxy)-6-methoxy-2H-1-benzopyran-2-one]
differentiation of the preadipocytes (Oil Red O staining) (3T3-L1 cells): reduced the differentiation of the preadipocytes in a concentration-dependent manner
decrease of cumulative body weight gain as compared to HFD [1]: 22%
decrease of final body weight as compared to HFD [1]: 10%
reduction of epididymal fat-pad weight as compared to HFD [1]: 29%
reduction of mesenteric fat-pad weight as compared to HFD [1]: 28%
reduction of perirenal fat-pad weight as compared to HFD [1]: 33%
reduction of retroperitoneal fat-pad weight as compared to HFD [1]: 31%
reduction of total visceral fat weight as compared to HFD [1]: 30%
lower plasma level of LDL+VLDL cholesterol as compared to HFD [2]: 30%
lower plasma level of free fatty acid as compared to HFD [2]: 27%
lower plasma level of total cholesterol as compared to HFD [2]: 23%
lower plasma level of triglyceride as compared to HFD [2]: 28%
reduction of the fasting blood sugar level as compared to HFD [2]: 16%
Free fatty acid ([2]; plasma, mean±SEM, n=8): 635 ± 65.6^b μEq/g
Total cholesterol ([2]; plasma, mean±SEM, n=8): 5.07 ± 0.26^b mmol/l
Triglyceride ([2]; plasma, mean±SEM, n=8): 0.65 ± 0.07^b mmol/l
LDL + VLDL cholesterol ([2]; plasma, total cholesterol minus HDL): 3.88 ± 0.27^b mmol/l
Glucose ([2]; plasma, fasting, mean±SEM, n=8): 7.51 ± 0.32^b mmol/l
decrease of cholesterol in liver tissue as compared to HFD [3]: 21%
decrease of free fatty acid in liver tissue as compared to HFD [3]: 33%
decrease of triglyceride in liver tissue as compared to HFD [3]: 22%
reduction of absolute weight of liver as compared to HFD [3]: 23%
Liver weight ([3]; mean±SEM, n=8): 1.7 ± 0.14^b g
Cholesterol ([3]; liver tissue, mean±SEM, n=8): 102.9 ± 5.4^b μmol/g
Free fatty acid ([3]; liver tissue, mean±SEM, n=8): 33.6 ± 4.6^b μEq/g
Triglyceride ([3]; liver tissue, mean±SEM, n=8): 55.6 ± 5.3^b μmol/g
decrease of plasma activity of ALT as compared to HFD [4]: 46%
decrease of plasma activity of AST as compared to HFD [4]: 41%
ALT (alanine aminotransferase) ([4]; plasma activity, mean±SEM, n=8): 5.55 ± 0.78^b IU/L
AST (aspartate aminotransferase) ([4]; plasma activity, mean±SEM, n=8): 5.80 ± 0.43 IU/L
C/EBPα mRNA expression level (C/EBPα): significantly reduced expressions
PPARγ2 mRNA expression level (PPARγ2): significantly reduced expressions
aP2 mRNA expression level (aP2): significantly reduced expressions
UCP1 mRNA expression level (UCP1): significantly reversed
UCP3 mRNA expression level (UCP3): significantly reversed
eicosanoid release [5]: suppression of eicosanoid release
acetylcholine esterase inhibition (acetylcholine esterase): inhibits acetylcholine esterase
